Legend:
[1] = N-acetyl serine and N-acetyl lysine reactivity; format: physicochemical; conditions: HPLC
Protocol: N-Acetyl Cysteine, N-Acetyl Lysine and N-Acetyl Serine Kinetic Studies. Assay was conducted as described with minor modifications.^81-84 Briefly, a 1 mM stock solution of NU-1 with internal standard (phenacetin) in DMSO was added to a 50 mM solution of either N-acetyl cysteine, N-acetyl lysine or N-acetyl serine in 67 mM phosphate buffer (pH 7.4), as well as added to a solution of 67 mM phosphate buffer (pH 7.4) control. Samples were taken every 2 min for 2 h and quenched immediately with MeOH and centrifuged upon sampling. Samples were placed on a Waters Acquity UPLC-MS system and measured for the ratio of NU-1 to internal standard intensity to calculate the amount of NU-1 present at each time point relative to the amount of NU-1 at the first injection of the compound in buffer. Assay was conducted in triplicate.

[2] = target: T1, endogenous telomerase in MCF-7 and A549 cells (Homo sapiens, UniProt O14746); assay: Endogenous telomerase activity after cell treatment (primer extension); format: cell-based; conditions: 10 μM, 24 h
T1 construct: endogenous in cells; host or cells: MCF-7 and A549
T1 sequence (O14746 whole entry): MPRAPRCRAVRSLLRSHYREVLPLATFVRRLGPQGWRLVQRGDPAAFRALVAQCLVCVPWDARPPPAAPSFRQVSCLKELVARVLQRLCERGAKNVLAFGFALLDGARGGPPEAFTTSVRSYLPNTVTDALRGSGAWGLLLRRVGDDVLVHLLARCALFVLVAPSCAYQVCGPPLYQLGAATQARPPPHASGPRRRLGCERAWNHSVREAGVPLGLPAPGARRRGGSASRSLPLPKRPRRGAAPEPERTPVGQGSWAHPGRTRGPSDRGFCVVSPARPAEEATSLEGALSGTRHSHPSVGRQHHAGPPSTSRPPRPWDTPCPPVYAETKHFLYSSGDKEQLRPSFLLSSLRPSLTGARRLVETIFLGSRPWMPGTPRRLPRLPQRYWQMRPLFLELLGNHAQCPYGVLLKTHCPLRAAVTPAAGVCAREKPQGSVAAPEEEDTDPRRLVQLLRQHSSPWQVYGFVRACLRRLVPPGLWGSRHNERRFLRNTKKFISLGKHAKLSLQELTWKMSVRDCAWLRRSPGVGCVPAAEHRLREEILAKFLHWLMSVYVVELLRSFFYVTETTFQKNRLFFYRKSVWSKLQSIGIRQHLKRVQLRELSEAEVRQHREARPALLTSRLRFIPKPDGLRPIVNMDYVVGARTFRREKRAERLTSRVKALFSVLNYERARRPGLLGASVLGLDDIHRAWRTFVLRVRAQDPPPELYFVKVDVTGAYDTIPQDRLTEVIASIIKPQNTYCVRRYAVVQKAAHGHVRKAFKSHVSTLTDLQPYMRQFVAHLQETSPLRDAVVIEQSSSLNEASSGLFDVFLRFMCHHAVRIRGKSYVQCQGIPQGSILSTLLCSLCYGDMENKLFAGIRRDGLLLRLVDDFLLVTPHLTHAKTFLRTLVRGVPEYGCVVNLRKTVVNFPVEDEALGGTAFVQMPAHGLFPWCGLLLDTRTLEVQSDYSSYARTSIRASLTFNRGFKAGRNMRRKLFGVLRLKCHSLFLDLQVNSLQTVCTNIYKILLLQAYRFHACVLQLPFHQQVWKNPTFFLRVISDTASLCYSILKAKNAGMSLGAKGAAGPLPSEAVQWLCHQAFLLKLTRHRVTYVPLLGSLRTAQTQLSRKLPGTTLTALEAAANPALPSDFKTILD
T1 sequence (O60832 whole entry partner): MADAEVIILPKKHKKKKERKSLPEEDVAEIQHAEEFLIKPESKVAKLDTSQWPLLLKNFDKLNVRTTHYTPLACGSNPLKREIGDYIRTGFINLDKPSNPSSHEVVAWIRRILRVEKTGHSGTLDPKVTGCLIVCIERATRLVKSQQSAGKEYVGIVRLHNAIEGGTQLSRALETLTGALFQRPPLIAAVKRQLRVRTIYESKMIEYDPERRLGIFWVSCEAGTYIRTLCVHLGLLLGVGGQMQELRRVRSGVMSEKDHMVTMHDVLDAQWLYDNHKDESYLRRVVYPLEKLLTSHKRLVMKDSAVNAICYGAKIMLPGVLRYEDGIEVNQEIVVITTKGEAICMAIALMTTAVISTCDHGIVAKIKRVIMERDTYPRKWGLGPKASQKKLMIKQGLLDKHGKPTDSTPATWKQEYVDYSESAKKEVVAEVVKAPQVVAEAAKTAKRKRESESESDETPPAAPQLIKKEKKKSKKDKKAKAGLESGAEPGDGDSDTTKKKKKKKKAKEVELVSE
T1 sequence (Q9NPE3 whole entry partner): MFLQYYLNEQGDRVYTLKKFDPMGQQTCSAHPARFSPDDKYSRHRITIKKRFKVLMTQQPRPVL
T1 sequence (Q9NX24 whole entry partner): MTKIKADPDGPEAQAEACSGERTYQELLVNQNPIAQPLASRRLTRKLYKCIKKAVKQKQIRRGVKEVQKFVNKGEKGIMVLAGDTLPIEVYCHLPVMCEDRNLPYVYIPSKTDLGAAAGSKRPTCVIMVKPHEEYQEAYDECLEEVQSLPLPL
T1 sequence (Q9NY12 whole entry partner): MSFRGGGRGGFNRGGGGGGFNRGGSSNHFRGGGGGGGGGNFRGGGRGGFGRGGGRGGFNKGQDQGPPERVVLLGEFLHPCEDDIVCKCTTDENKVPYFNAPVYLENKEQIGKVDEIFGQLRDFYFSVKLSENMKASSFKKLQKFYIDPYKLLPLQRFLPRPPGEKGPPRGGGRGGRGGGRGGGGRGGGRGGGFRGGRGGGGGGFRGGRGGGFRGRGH
T1 sequence (Q9BUR4 whole entry partner): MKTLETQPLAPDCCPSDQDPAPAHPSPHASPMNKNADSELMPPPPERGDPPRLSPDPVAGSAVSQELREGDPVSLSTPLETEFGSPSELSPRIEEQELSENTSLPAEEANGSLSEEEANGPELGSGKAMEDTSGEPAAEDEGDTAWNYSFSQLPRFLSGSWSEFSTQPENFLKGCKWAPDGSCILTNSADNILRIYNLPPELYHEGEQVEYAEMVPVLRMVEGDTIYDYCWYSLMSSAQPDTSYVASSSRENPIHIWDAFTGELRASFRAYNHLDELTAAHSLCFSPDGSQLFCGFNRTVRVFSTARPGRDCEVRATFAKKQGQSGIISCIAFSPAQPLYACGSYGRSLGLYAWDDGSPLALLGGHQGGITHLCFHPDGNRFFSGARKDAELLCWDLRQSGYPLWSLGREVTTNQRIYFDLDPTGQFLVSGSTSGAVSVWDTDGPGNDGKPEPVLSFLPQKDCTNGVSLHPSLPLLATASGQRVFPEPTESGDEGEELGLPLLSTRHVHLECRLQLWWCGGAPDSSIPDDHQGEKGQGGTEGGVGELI
Protocol: For FIG. 4C, the control or treated cells were prepared and collected as pellets of 5×10^6 cells each at NW and pellets were shipped to CMRI on dry ice. Frozen cell pellets were thawed on wet ice and suspended in 1 mL telomerase buffer supplemented with 1 mM PMSF. Endogenous telomerase was immunopurified and assayed as described.

amino acid adducts [1]: No amino acid adducts were found
endogenous telomerase activity [2]: completely eliminated
Structure (SMILES): C=C1C(=O)[C@](C)(C(=O)OC)[C@H](CCc2cn(Cc3ccc(F)cc3F)nn2)O[C@@H]1C [NU-1, methyl (2S,3R,6R)-2-(2-(1-(2,4-difluorobenzyl)-1H-1,2,3-triazol-4-yl)ethyl)-3,6-dimethyl-5 methylene-4-oxotetrahydro-2H-pyran-3-carboxylate]

From patent US11518750B2, “3-methylideneoxan-4-one compounds and substituted derivatives thereof as inhibitors of telomerase” (NORTHWESTERN UNIVERSITY, priority 2019, dated 2022)
